Assay results as given in patent US7732617B2, “Tocopherol derivatives and uses thereof” (Brock University, priority 2007, dated 2010).

Tests used:
[1] = target: T1, tocopherol hydroxylase activity in HepG2/C3A cultures (Homo sapiens, UniProt P78329); assay: Metabolism of γ-tocopherol (ω-oxidation products by GC-MS) in HepG2/C3A hepatoblastoma cultures; format: cell-based; conditions: 48 hours; for EC50: 4 hour pre-incubation, 25 μM γ-tocopherol as substrate, read-out: concentration required to inhibit tocopherol hydroxylase activity by 50% (EC50)
T1 construct: Confluent cultures of the human heptoblastoma cell line, HepG2/C3A; endogenous in cells; host or cells: HepG2/C3A
T1 sequence (P78329 5-520): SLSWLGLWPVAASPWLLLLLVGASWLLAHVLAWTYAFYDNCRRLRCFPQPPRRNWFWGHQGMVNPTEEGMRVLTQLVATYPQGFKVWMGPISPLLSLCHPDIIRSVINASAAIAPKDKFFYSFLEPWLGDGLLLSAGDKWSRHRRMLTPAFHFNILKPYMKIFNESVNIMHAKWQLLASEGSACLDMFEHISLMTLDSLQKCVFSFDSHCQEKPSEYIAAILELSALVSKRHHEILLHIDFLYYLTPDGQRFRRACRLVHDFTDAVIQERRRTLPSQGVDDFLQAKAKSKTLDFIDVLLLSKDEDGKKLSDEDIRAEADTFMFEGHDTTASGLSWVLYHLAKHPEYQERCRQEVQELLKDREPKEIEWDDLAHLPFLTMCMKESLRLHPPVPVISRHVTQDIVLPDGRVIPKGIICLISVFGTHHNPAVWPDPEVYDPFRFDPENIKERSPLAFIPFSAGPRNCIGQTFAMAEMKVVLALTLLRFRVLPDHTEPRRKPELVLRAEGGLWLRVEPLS
Description: (§1) (R)-2-(9-(1H-1,2,4-triazol-1-yl)nonyl)-2,5,7,8-tetramethylchroman-6-ol and γ-tocopherol stock solutions were prepared in ethanol. Confluent cultures of the human heptoblastoma cell line, HepG2/C3A, were pre-incubated with varying concentrations of (R)-2-(9-(1H-1,2,4-triazol-1-yl)nonyl)-2,5,7,8-tetramethylchroman-6-ol or ethanol for 4 hours, followed by addition of 25 μM γ-tocopherol. After 48 hours, culture media was collected and analyzed for ω-oxidation products of γ-tocopherol (the 3′- and 5′-carboxychromanols) by GC-MS, using d9-3′-carboxyethylchromanol as internal standard (Sontag T J et al. (2002) J Biol Chem 277: 25290-25296).
The effect of the triazole compounds were tested in human hepatoblastoma cell culture as described in Example 1, i.e. using 25 μM γ-tocopherol as substrate and 4 hour pre-incubation with the synthetic inhibitors.

[2] = system: HepG2/C3A; assay: Cell protein and monolayer morphology of HepG2/C3A cultures; format: cell-based, human; conditions: 48 hours
Description: as §1
There was no effect of (R)-2-(9-(1H-1,2,4-triazol-1-yl)nonyl)-2,5,7,8-tetramethylchroman-6-ol on cell protein and all monolayers appeared normal in morphology.

[3] = system: tocopherol hydroxylase; assay: Tissue enrichment in δ-tocopherol in mice in vivo (diet feeding, GC-MS); conditions: 10 days
Description: Two groups of mice (n=3) were fed a chow diet enriched with δ-tocopherol (6000 mg per kg diet), with or without 500 mg per kg (R)-2-(9-(1H-1,2,4-triazol-1-yl)nonyl)-2,5,7,8-tetramethylchroman-6-ol. After 10 days on diet, mice were fasted for 5 hrs, euthanized, and tocopherol concentrations determined in plasma, liver and bile, using GC-MS procedures and d9-3′-carboxyethylchromanol as internal standard (Sontag T J et al.).
Therefore data shown in FIG. 2 are presented as the δ-tocopherol/α-tocopherol ratio, where an increase in the ratio reflects enrichment in δ-tocopherol relative to α-tocopherol.

[4] = 500 mg per kg diet with δ-tocopherol 6000 mg per kg diet, versus control, P<0.05

SMILES	EC50 [1] [nM]	Tocopherol hydroxylase activity ([1]; at compound concentrations above 10 nM, 25 μM γ-tocopherol)	effect on cell protein [2]	morphology of monolayers [2]	δ-tocopherol/α-tocopherol ratio in mouse liver [3, 4]	α-tocopherol status ([3]; mice, 500 mg per kg diet)	δ-tocopherol/α-tocopherol ratio in bile [3, 4]
Cc1c(C)c2c(c(C)c1O)CC[C@@](C)(CCCCCCCCCn1cncn1)O2 [(R)-2-(9-(1H-1,2,4-triazol-1-yl)nonyl)-2,5,7,8-tetramethylchroman-6-ol]	~1	completely abolished	no effect	normal	doubling	no evidence that α-tocopherol status was affected	
Cc1c(C)c2c(c(C)c1O)CC[C@@](C)(CCCCCCCCCn1ccnc1)O2 [(R)-2-(9-(1H-imidazol-1-yl)nonyl)-2,5,7,8-tetramethylchroman-6-ol]	1 to 2						tripled
